For one compound, Ct reduction results are on record in PubChem BioAssay AID588784 (Southern Research Specialized Biocontainment Screening …, 2011).

Structures are written as SMILES. Several values for one entry are separate records, joined by “and”; a condition that tells them apart may be missing. Equal entries are not always repeated. Activity calls are given as the source filed them. No rule for the calls is given here.

For the assay, the system named is HSV-infected cells, viral DNA qPCR Ct reduction. Description: HSV genome copy increase, qPCR Ct shift, cell-based, HSV replication enhancer project, confirmation (AID 588784). Particulars: at 10 µM; active compounds read high. In general terms: Quantitative PCR measures a nucleic acid by following its amplification.

As for `COc1cc(C(=O)OCCCN2CCCN(CCCOC(=O)c3cc(OC)c(OC)c(OC)c3)CC2)cc(OC)c1OC`, the Ct reduction was -0.309 (inactive) and -0.64 (inactive).
